Reference: US12533327B2, “Hexylamine salts and methods of using hexylamine” (priority 2019, dated 2026)
Structures can show the parent of a compound that is named as a salt.

Experiments:
human subjects [1] = assay type: in vivo
Description: Five human subjects were given 100-600 mg hexylamine succinate each day over a period of a month or four weeks (see Table 1).
Over the course of the treatment period, two of the subjects who ingested hexylamine daily experienced a weight loss of 3 pounds without making any changes to their diet or exercise regimen. With the administration of 600 mg hexylamine succinate (equaling 276 mg of hexylamine base), the subjects' body temperature would rise by about 0.5° C.
None of the subjects experienced any of the toxic side effects described for too much exposure hexylamine, which include, burning sensation, abdominal pain, shock, or collapse. However, the effectiveness would diminish with doses less than 100 mg.

[2] = Storage of hexylamine succinate in the atmosphere, water gain; assay type: physicochemical; conditions: over one week of storage
Description: Hexylamine succinate (structure shown in Formula II) was effectively synthesized by pouring an equimolar amount of hexylamine into succinic acid powder while continuously stirring in an ice bath so that the temperature of the salt solution would be […].

[3] = Pharmacotechnical properties of synthesized hexylamine salts (state, hygroscopicity, solubility, dissolution, stability)
human subject = experiment: Human tolerance of hexylamine succinate; assay type: in vivo; conditions: one subject, 250 lbs, daily dose increased from 100 mg
Description: A human subject (250 lbs) was administered a single 100 mg hexylamine succinate, and their tolerance to the salt was record. The daily dose was increased increased daily to determine the highest daily dose that could be tolerance by the subject. At a daily dose of 800 mg and higher, the subject reported side effects such as feelings of discomfort.

[4] = Shelf life comparison, salts left exposed to air for a month; assay type: physicochemical
From the text: FIG. 1 depicts a comparison of hexylamine succinate and hexylamine tartrate after being left exposed to air for a period of a month.
Hexylamine succinate and hexylamine tartrate were left exposed for a period of a month.

human subjects [5] = system: human subjects
[6] = standard temperature and pressure; cited from earlier work
human subjects [7] = experiment: Iowa trail making test; assay type: in vivo; conditions: 1000 mg tri-hexylamine citrate oral vs placebo
From the text: The Iowa trail making test assesses visual attention and task switching. In map A, the subject is to draw lines to connect circled numbers in a numerical sequence (1-2-3- . . . ) as rapidly in possible. In map B, the subject is to draw lines to connect circled numbers and letters in an alternating numeric and alphabetic sequence (1-A-2-B- . . . ) as rapidly as possible. Accordingly, map A assesses cognitive processing speed, while map B asses executive function. If the subject makes an error, it was immediately pointed it out and the subject was allowed correct it. Accordingly, errors affect the score only in that the correction of errors is included in the completion time for the task. […] Thus, hexylamine administration improves executive function.

human = conditions: cited from earlier work
[8] = cited from earlier work
[9] = Physiological effects of propylamine and amylamine; assay type: in vivo; conditions: doses starting at 300 mg
From the text: Propylamine, […], a close chemical entity to hexylamine, has been used in the distant past as a sedative at doses of 2-10 grams (Page 892 of The Standard Medical Directory of North America 1902, GP Engelhard and Company, Chicago). […] Accordingly, compound having similar structure to hexylamine were expected to reduce alertness and cognitive function due to their sedative effects (from de facto slowdown of brain activity).

human subjects [10] = experiment: Administration of […] and caffeine, caffeine side effects; conditions: same subjects, 300 mg caffeine alone
[11] = Citrate salts left exposed to air for one day; assay type: physicochemical
From the text: FIG. 2 depicts a comparison of monohexylamine citrate and tri-hexylamine citrate after being left exposure to air for one day.

[12] = Organoleptic properties and contact irritation of hexylamine and its salts
human subjects [13] = experiment: Activity of hexylamine salt forms on human subjects; assay type: in vivo; conditions: taken as a capsule, compared with other salts of hexylamine
human subjects [14] = experiment: Psychomotor vigilance test via sleep-2-Peak mobile application; assay type: in vivo; conditions: 1000 mg oral vs placebo, p=0.0015
From the text: Statistically significant results were obtained from the cognitive function tests.

[15] = Time course of tri-hexylamine citrate in water; assay type: physicochemical; conditions: one gram scattered over 100 ml water at room temperature
Description: FIG. 3 depicts a time course of tri-hexylamine citrate in water. One gram of tri-hexylamine citrate was scattered over 100 ml water at room temperature (left). About one minute after, all of the tri-hexylamine citrate was dissolved (right).

human subjects [16] = experiment: Effect of tri-hexylamine citrate on physical performance; assay type: in vivo; conditions: four subjects, 1000 mg 30 minutes before exercise
Description: Four human subjects ingested 1000 mg tri-hexylamine citrate 30 minutes before performing their regular exercise.

[17] = five subjects, 100-600 mg each day for a month

CCCCCCN.O=C(O)CCC(=O)O [Hexylamine succinate]
rise of body temperature (human subjects [1]; 600 mg hexylamine succinate (276 mg hexylamine base)): about 0.5 °C | appetite (human subjects [1]; [17]): reduced appetite | athletic performance (human subjects [1]; [17]): increase in athletic performance | body temperature (human subjects [1]; [17]): increased body temperature | endurance (human subjects [1]; [17]): increase in endurance | fatigue (human subjects [1]; [17]): reduction of fatigue | heart rate (human subjects [1]; [17]): increase in heart rate | increase in diastolic blood pressure, average (human subjects [1]; [17]): 2 mm | increase in systolic blood pressure, average (human subjects [1]; [17]): 8 mm | memory recollection (human subjects [1]; [17]): improved memory recollection | mental acuity (human subjects [1]; [17]): increased mental acuity | mood (human subjects [1]; [17]): improved mood | strength (human subjects [1]; [17]): increase in strength | sweating (human subjects [1]; [17]): increased sweating | hygroscopicity [2]: non-hygroscopic | water gained in the atmosphere [2]: less than 1% | hygroscopicity [3]: non-hydroscopic | solubility in water [3]: good solubility and dissolution rate | daily dose at which side effects such as feelings of discomfort were reported (human subject): ≥ 800 mg | state of the powder and moisture uptake [4]: remained a fine powder and gained little moisture

CCCCCCN [Hexylamine]
tolerability (human subjects [1]; five subjects, none had toxic side effects (burning sensation, abdominal pain, shock, collapse)): generally well-tolerated | dose below which the effectiveness would diminish (human subjects [1]; human, in vivo): less than 100 mg | weight loss (human subjects [1]; two of the subjects, daily ingestion over the treatment period, no change of diet or exercise): 3 pounds | discomfort or serious side effects (human subjects [5]; twelve healthy subjects, 1000 mg oral, blinded crossover vs placebo): None of the subjects experienced any discomfort or any serious side effect | solubility in organic solvents [6]: soluble in almost all organic solvents | average completion time, map A (human subjects [7]; not statistically significant): reduced the average time | change of average completion time, map B (human subjects [7]; p=0.0020): -12.5 s | toxicity label (human; Phytochemical Dictionary, second edition): highly toxic in any quantity | blood pressure and other physiological effects (human; administered to a human (Alles 1941)): no change in blood pressure or any other physiological effect was observed

CCCN [Propylamine]
physiological use ([8]; doses of 2-10 grams (Standard Medical Directory of North America 1902)): sedative

CCCCCN [amylamine, Amylamine]
body temperature [9]: a drop in body temperature | heart rate [9]: reduction in heart rate | cardiac function, heartbeat and body temperature ([8]; King's American Dispensatory 1909): reduce cardiac function, reduce heartbeat, and reduce body temperature

Cn1c(=O)c2c(ncn2C)n(C)c1=O [caffeine]
jittery sensation or caffeine crash (human subjects [10]): experience at leas tone of these side effects

CCCCCCN.O=C(O)C(O)C(O)C(=O)O (stereo not shown) [hexylamine tartrate]
state of the powder and moisture uptake [4]: absorbed moisture from the atmosphere and suffered from extensive caking

CCCCCCN.O=C(O)CC(O)(CC(=O)O)C(=O)O [mono-hexylamine citrate]
dissolution rate in water [3]: much slower dissolution rate in water | hygroscopicity [3]: very hygroscopic | state of the salt [11]: hardened into a solid mass

O=[N+]([O-])O [nitrate]
effect on contact with skin, tongue or mouth [12]: very irritating on contact with the skin or mouth

CCCCCCN [tri-hexylamine citrate]
dissolution rate in water [3]: dissolves faster than all other salts of hexylamine in water | stability of the salt [3]: very stable salt | state of the salt [11]: suffered from some caking | diastolic pressure, group (human subjects [5]; 1000 mg oral vs placebo): no significant difference | heart rate, group (human subjects [5]; 1000 mg oral vs placebo): no significant difference | systolic blood pressure, group (human subjects [5]; 1000 mg oral vs placebo): no significant difference | self-mood assessment test (human subjects [5]; 1000 mg oral vs placebo, scale 1-10): did not show any statistically significant results | blood pressure (human subjects [5]; 1000 mg oral vs placebo, up to 50 minutes after administration): largely unaffected | onset of effect (human subjects [13]): has a faster effect on human subjects | change of average reaction time (human subjects [14]): -70.1 ms | reduction of average reaction time (human subjects [14]): 18% | time until all was dissolved [15]: About one | focus and energy, self-reported (human subjects [16]): feeling more focused and energetic | sense of fatigue during and after exercise (human subjects [16]): reduced sense of fatigue | repetitions on knee extensions and bench press (human subjects [16]; vs no supplement): greater number of repetitions | time to exhaustion on the treadmill (human subjects [16]; vs no supplement): longer time to exhaustion
